Reference: PubChem BioAssay AID1259338 (Broad Institute, 2017)
Activity calls are given as the source filed them.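 Rule for the calls: active = compounds lowering the signal with a fitted AC50 at or below a set concentration limit; inconclusive = flat curve with 30 to 70% inhibition, or a poor fit; inactive = the rest.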

What follows are molecules tested against Caspase recruitment domain-containing protein 9 (Homo sapiens) + E3 ubiquitin-protein ligase TRIM62 (Homo sapiens) (UniProt Q9H257+Q9BVG3) (assay: disruptors of CARD9-TRIM62 binding, dose response, cell lysate, HEK293FT lysates, Luminex bead readout (AID 1259338; for activity change, negative = inhibition: reference of the scale not given here)). Conditions: Luminex bead PPI, MFI.
Caspase recruitment domain-containing protein 9 (Homo sapiens) + E3 ubiquitin-protein ligase TRIM62 (Homo sapiens), sequence (Q9BVG3 whole entry, looked up, the tested form may be a part): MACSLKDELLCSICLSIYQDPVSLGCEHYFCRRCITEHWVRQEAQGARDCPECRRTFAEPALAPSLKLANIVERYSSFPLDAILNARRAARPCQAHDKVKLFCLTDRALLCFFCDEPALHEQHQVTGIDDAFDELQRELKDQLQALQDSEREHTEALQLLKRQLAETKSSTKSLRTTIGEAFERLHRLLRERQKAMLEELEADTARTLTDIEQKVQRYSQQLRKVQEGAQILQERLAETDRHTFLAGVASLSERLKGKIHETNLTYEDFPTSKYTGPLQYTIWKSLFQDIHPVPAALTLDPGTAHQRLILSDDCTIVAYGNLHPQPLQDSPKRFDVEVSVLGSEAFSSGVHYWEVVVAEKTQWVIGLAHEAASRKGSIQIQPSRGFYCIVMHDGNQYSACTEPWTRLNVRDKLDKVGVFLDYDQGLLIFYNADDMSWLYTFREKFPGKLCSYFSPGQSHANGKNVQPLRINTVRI
Caspase recruitment domain-containing protein 9 (Homo sapiens) + E3 ubiquitin-protein ligase TRIM62 (Homo sapiens), sequence (Q9H257 whole entry, looked up, the tested form may be a part): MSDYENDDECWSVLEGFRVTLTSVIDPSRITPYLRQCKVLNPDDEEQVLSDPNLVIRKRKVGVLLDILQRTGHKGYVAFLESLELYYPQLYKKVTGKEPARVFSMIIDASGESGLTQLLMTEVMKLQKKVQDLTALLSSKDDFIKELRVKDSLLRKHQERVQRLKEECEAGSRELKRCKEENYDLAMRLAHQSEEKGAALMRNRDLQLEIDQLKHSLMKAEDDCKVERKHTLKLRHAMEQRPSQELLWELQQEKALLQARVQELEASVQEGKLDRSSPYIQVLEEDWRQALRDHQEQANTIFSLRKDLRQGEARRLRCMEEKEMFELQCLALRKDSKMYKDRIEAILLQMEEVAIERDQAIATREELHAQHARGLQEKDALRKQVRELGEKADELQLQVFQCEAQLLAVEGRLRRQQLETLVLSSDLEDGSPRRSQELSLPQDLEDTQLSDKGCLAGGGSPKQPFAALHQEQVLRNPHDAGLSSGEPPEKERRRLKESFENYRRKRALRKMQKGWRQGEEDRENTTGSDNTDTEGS

SMILES	AC50
COc1cccc(NC(=O)CN(C)C(=O)c2cc3c(s2)CCC3)c1	50.6 µM
Cc1noc(C)c1S(=O)(=O)Nc1ccc2c(c1)C(=O)N([C@H](C)CO)C[C@H](C)[C@@H](CN(C)C(=O)C1CCCCC1)OCCCC[C@H](C)O2	> 160 µM (inactive)
Cc1ccsc1[C@@H]1CCN(Cc2ccc(-c3ccn[nH]3)o2)C[C@H]1O	> 160 µM (inactive)
O=S(=O)(c1ccccc1)N1CC2CN(Cc3ccc(O)cc3)C2C1 (configuration not stated)	22.8 µM
CCOC(=O)C1CCN(C(=O)CN(Cc2ccccc2)S(C)(=O)=O)CC1	> 76 µM (inactive)
NC(=O)C1(N2CCCCC2)CCN(c2ncc(NC(=O)c3cccc(Cl)c3)cc2C(=O)O)CC1	6.54 µM
Cc1ccc(C(=O)Nc2ccc(N3CCC(C(N)=O)(N4CCCCC4)CC3)c(C(=O)O)c2)cc1	24.3 µM
O=C(Cc1ccc(S(=O)(=O)N2CCOCC2)s1)Nc1nc2c(s1)CCCC2	> 160 µM (inactive)
CC(=O)c1cccc(OCC(=O)N(C)CC(=O)NCc2ccco2)c1	82.2 µM
O=C(Nc1nccs1)c1cc(-c2ccccn2)nc2c(Cl)cccc12	> 160 µM (inactive)
CCN1CCN(C(=O)c2cc(-c3ccco3)nc3ccccc23)CC1	61.4 µM
COc1ccc(-n2c(C)c3c(OC)cccc(=O)c3c2C)cc1	79.7 µM
O=C1C=C(c2ccccc2)Nc2ccccc2N1	> 160 µM (inactive)
Cc1ccc(-c2cc(C(=O)NCc3ccco3)c3ccccc3n2)o1	75 µM
O=C1c2ccccc2-c2nc3ccccc3nc21	> 160 µM (inactive)
C[C@H](CO)N1C[C@H](C)[C@@H](CN(C)CC2CCCCC2)OCCCC[C@H](C)Oc2ccc(NS(=O)(=O)c3ccc(F)cc3)cc2C1=O	73 µM
O=C(Nc1nc(-c2ccco2)c(-c2ccco2)s1)C1CCC1	54.7 µM
Cc1cccc2nc(CSCc3ccco3)cn12	> 160 µM (inactive)
O=C(Nc1nccs1)c1cc(-c2ccco2)nc2ccccc12	> 160 µM (inactive)

Same assay, conditions: Luminex bead PPI, MFI, at 38 µM (top of the series)

SMILES	activity change, negative = inhibition
COCCn1c(C)cc(-c2csc(N)n2)c1C	inactive

Same assay, conditions: Luminex bead PPI, MFI, at 80 µM (top of the series)

SMILES	activity change, negative = inhibition
O=C(NCc1ccco1)[C@@H]1CSC2c3ccccc3C(=O)N21 (some centres not stated)	inactive
Cc1ccc(N2C(=O)c3ccccc3C2C(=O)c2ccc(O)cc2O)cc1 (configuration not stated)	inactive
CC1CCN(c2nc(-c3ccco3)c3c(c2C#N)CC(C)(C)OC3)CC1	inactive
C[C@H](CO)N1C[C@H](C)[C@@H](CN(C)C(=O)C2CCCCC2)OCCCC[C@H](C)Oc2ccc(NS(=O)(=O)c3ccccc3)cc2C1=O	inactive
O=C1CC(c2ccco2)Cc2nc(N3CCc4ccccc4C3)ncc21 (configuration not stated)	inactive
O=C(NCc1ccco1)c1ccc(S(=O)(=O)N2CCOCC2)cc1	inactive
O=c1/c(=C/c2ccco2)sc2nc3ccccc3n12	inactive
O=[N+]([O-])c1c(NCCCO)cc(SCc2ccco2)c2nonc12	inactive
O=C(CCN1CCOCC1)c1ccc2c(c1)OCCO2	inactive
O=C(O)c1cc(-c2ccc(-c3ccc(F)cc3)o2)nc2ccccc12	inactive
C[C@H](CO)N1C[C@H](C)[C@@H](CN(C)C(=O)C2CCCCC2)OCCCC[C@H](C)Oc2ccc(NS(=O)(=O)c3ccc(F)cc3)cc2C1=O	inactive
C[C@H](CO)N1C[C@H](C)[C@@H](CN(C)C(=O)C2CCCCC2)OCCCC[C@H](C)Oc2ccc(NS(=O)(=O)c3ccc(Cl)cc3)cc2C1=O	inactive
O=C(CCc1nc(-c2ccccc2)no1)NCC1CNCCOC1 (configuration not stated)	inactive
CCCc1oc(C(=O)O)cc1CN	inactive
CN1C(=O)C(c2ccccc2[N+](=O)[O-])C(=O)c2ccccc21 (configuration not stated)	inactive
O=C(O)Cc1c[nH]c2cccc(O)c12	inactive
O=C(O)CCc1ccc(-c2cccs2)n1NC(=O)c1ccco1	inactive
CN(c1ccccc1C(=O)NCc1ccco1)S(C)(=O)=O	inactive
c1coc(-c2cn3ccc4ccccc4c3n2)c1	inactive
O=C(Nc1cccc2ccccc12)NC1CC1	inactive
O=C(COC(=O)c1ccc(S(=O)(=O)NCc2ccco2)cc1)Nc1ccc(Cl)cn1	inactive
Cc1noc(CN(C)C(=O)c2cc(-c3ccco3)nc3c(C)c(Cl)ccc23)n1	inactive
O=[N+]([O-])c1ccc2cc[nH]c2c1	inactive
O=C(COC(=O)CCC(=O)c1cccs1)NCc1ccco1	inactive

SMILES	activity change, negative = inhibition
C[C@H](CO)N1C[C@H](C)[C@@H](CN(C)CC2CCCCC2)OCCCC[C@H](C)Oc2ccc(NS(=O)(=O)c3ccc(Cl)cc3)cc2C1=O	inactive
CC(C(=O)N1CCCC1)N1CCN(c2ccccc2O)CC1 (configuration not stated)	inactive
O=C(O)COCC(=O)NCc1ccco1	inactive
COc1cc(N)c(Cc2nccc3cc(OC)c(OC)cc23)cc1OC	inactive
CCSCCNC(=O)c1cncc(Br)c1	inactive
O=C(COC(=O)c1cc(-c2ccco2)nc2ccccc12)NCc1ccc2c(c1)OCO2	inactive
COc1ccc(-c2nc(SCC(=O)N3CCN(c4ccccc4OC)CC3)n[nH]2)cc1	inactive
Cc1ccc(S(=O)(=O)Nc2ccc3c(c2)C(=O)N([C@H](C)CO)C[C@H](C)[C@@H](CN(C)CC2CCCCC2)OCCCC[C@H](C)O3)cc1	inactive
O=C(NCCc1ccco1)c1ccc(OCc2cn3ccccc3n2)cc1	inactive
CCNc1ncc(C(=O)NCCc2nc3c(s2)CCCC3)cn1	inactive
COc1ccc(-c2ccc(CCC(=O)O)o2)cc1	inactive
CCc1oc2ccccc2c1C(=O)CCN1CCCCC1	inactive
O=C(O)c1ccccc1SC1CC(=O)N(Cc2ccccc2)C1=O (configuration not stated)	inactive
CCCCCn1c(NC(=O)c2ccco2)c(C(=O)OCC)c2nc3ccccc3nc21	inactive
Cc1cc(C(=O)NCc2ccco2)on1	inactive
O=C1c2ccccc2S(=O)(=O)N1Cc1cccc(S(=O)(=O)N2CCOCC2)c1	inactive
O=C(O)COc1ccc(-n2cccc2)cc1	inactive
COc1ccc(S(=O)(=O)Nc2ccc3c(c2)C(=O)N([C@H](C)CO)C[C@H](C)[C@@H](CN(C)C(=O)C2CCCCC2)OCCCC[C@H](C)O3)cc1	inactive
O=C(NCc1ccco1)C1CCCN(S(=O)(=O)c2cccc3nonc23)C1 (configuration not stated)	inactive
N#CNc1nc(O)cc(=O)[nH]1	inactive
Cc1occc1C(=O)NCc1cccc(CNC(=O)c2ccoc2C)c1	inactive
COCC(=O)n1nc(-c2ccco2)nc1NCc1cccs1	inactive
Cc1nn2c(c1-c1ccccc1)NC(c1ccco1)=CC2c1ccco1 (configuration not stated)	inactive
